In patent publication US7041837B2, “Heterocyclic compounds having hypolipidemic, hypocholesteremic activities process for their preparation and pharmaceutical compositions containing them and their use in medicine” (Cadilla Healthcare Limited, priority 2001, dated 2006):

Test system: Swiss albino mice
Experiment: Serum triglyceride and total cholesterol lowering activity in Swiss albino mice
Assay type: in vivo
Settings: male Swiss albino mice, 3 mg/kg/day orally for 6 days, 1 hour after dosing on 6th day
Description: i) Serum Triglyceride and Total Cholesterol Lowering Activity in Swiss Albino Mice:
Male Swiss albino mice (SAM) were bred in Zydus animal house. All these animals were maintained under 12 hour light and dark cycle at 25±1° C. Animals were given standard laboratory chow (NIN, Hyderabad, India) and water ad libitum. SAM of 20–30 g body weight range were used.
The test compounds were administered orally to Swiss albino mice at 0.001 to 50 mg/kg/day dose for 6 days. The compound was administered after suspending it in 0.25% CMC or dissolving it in water, when compound is water-soluble. Control mice were treated with vehicle (0.25% of Carboxymethylcellulose; dose 10 ml/kg).
The blood samples were collected on 0th day and in fed state 1 hour after drug administration on 6th day of the treatment. The blood was collected in non heparinised capillary and the serum was analyzed for triglyceride and total cholesterol (Wieland, O. Methods of Enzymatic analysis. Bergermeyer, H., O., Ed., 1963. 211–214; Trinder, P. Ann. Clin. Biochem. 1969. 6:24–27). Measurement of serum triglyceride and total cholesterol was done using commercial kits (Zydus-Cadila, Pathline, Ahmedabad, India).
Percentage reduction in triglycerides/total cholesterol were calculated according to the formula:
[formula] • OC=Zero day control group value OT=Zero day treated group value • TC=Test day control group TT=Test day treated group

CCOC(Cc1ccc2cc(OCCn3c(C)ccc3-c3ccc(OC)cc3)ccc2c1)C(=O)OC (racemic) [Example 76, (R/S) Methyl-2-ethoxy-3[6-[2-[2-(4-methoxyphenyl)-5-methyl-pyrrol-1-yl]ethoxy]napthalen-2yl]propanoate]
% Triglyceride lowering: 26%
